The test system of one test is J82 xenografts. Briefly: Mouse xenograft model, tumor growth. The following applies: increasing doses, intraperitoneal. The test is classed as in vivo, C.B17/SCID mice. How it is done: (§1) Five week-old male C.B17/SCID mice were procured from a breeding colony at University of Michigan, maintained by Dr. Kenneth Pienta. Mice were anesthetized using a cocktail of xylazine ([…], intraperitoneal) and ketamine (10 mg/kg, intraperitoneal) for chemical restraint. Bladder cancer cells SW780 (2 million cells for each implantation site) or J82 (5 million cells for each implantation site) were resuspended in 100 μl of 1×PBS with 20% Matrigel (BD Biosciences) and were implanted subcutaneously into flank region on both sides. Eight mice were included in each experimental group. All tumors were staged for two weeks (SW780 cells) and three weeks (J82 cells) before starting the drug treatment. Xenografted mice with palpable tumors were treated with a FGFR inhibitor PD173074 (Selleck Chemicals) dissolved in 5% ethanol in corn oil (intraperitoneal). Mice in control group received 5% ethanol in corn oil as vehicle control. Tumor growth was recorded weekly by using digital calipers and tumor volumes were calculated using the formula (π/6) (L×W2), where L=length of tumor and W=width. Any decrease in the body weight of mice was monitored bi-weekly during the course of the study. All experimental procedures involving mice were approved by the University Committee on Use and Care of Animals (UCUCA) at the University of Michigan and conform to their relevant regulatory standards.

The test system of the next test is SW780 xenografts. In words: Mouse xenograft model, tumor growth. Format: in vivo, C.B17/SCID mice. The following applies: increasing doses, intraperitoneal. As for the experimental part: as §1
The test system of test [1] is SW780 cells (FGFR3-BAIAP2L1 fusion). Briefly: Cell proliferation assay (WST-1), FGFR inhibition. The test is classed as cell-based. The following applies: 0, 5, 25, 100 nM. How it is done:
For validation of fusion transcripts, quantitative RT-PCR assays were performed. Total cDNAs of index cases and negative control samples were synthesized using SuperScript III System according to the manufacturer's instructions (Invitrogen). Quantitative RT-PCR was performed using fusion-specific primers (Table 15) with SYBR Green Master Mix (Applied Biosystems) on the StepOne Real-Time PCR System (Applied Biosystems). The PCR products were further analyzed by agarose gel electrophoresis. Relative mRNA levels of the fusion transcripts were normalized to the expression of the housekeeping gene GAPDH. Inhibition of FGFR receptors and cell proliferation assay Bladder cancer cells SW780, J82, and HT1197 were seeded into 96-well plates in triplicate and allowed to attach before drug treatment. The FGFR inhibitor PD173074 (Selleck Chemicals) was added to the cultures at concentrations of 0, 5, 25, and 100 nM. Relative cell numbers were measured by WST-1 assays at indicated time points following the manufacturer's instructions (Roche).
For orientation: Formazan colour is commonly taken as a measure of viable cells.

Each structure is given as a SMILES string.

For `CCN(CC)CCCCNc1ncc2cc(-c3cc(OC)cc(OC)c3)c(NC(=O)NC(C)(C)C)nc2n1` [PD173074], the xenograft tumor growth entry in the test on J82 xenografts is “did not”; with SW780 xenografts, “decreased tumor growth”. For the same compound, the “sensitivity of cell line to FGFR inhibitor (cell proliferation)” value in test [1] is listed as “sensitive to nanomolar concentrations”; in test [1] (listed as PD 173074) it was “enhanced sensitivity”.

Values taken from patent publication US9783853B2, “Recurrent gene fusions in cancer” (THE REGENTS OF THE UNIVERSITY OF MICHIGAN, priority 2013, dated 2017).
